The nature of this assay: The opioid antagonist potency against PL-107 mu-opioid receptor from guinea pig ileum(GPI).Ke (nM) = [antagonist]/(IC50 ratio-1).

With `Oc1ccc2c3c1O[C@H]1c4ncc(-c5ccccc5)cc4C[C@@]4(O)[C@@H](C2)N(CC2CC2)CC[C@]314`, the inhibition constant (Ki) (as a rule, a dissociation constant, usually derived from enzyme kinetics or from competition with a known ligand) amounted to 42 nM.
